Data published in patent EP4603105A1, “PHARMACEUTICAL COMPOSITION CONTAINING CYCLIC COMPOUND HAVING SELECTIVE KRAS INHIBITORY EFFECT AGAINST HRAS AND NRAS” (CHUGAI SEIYAKU KABUSHIKI KAISHA, priority 2022, dated 2024).
Like-named read-outs stand apart in the source and are kept apart here. Where a SMILES comes first, the peptide text is derived from it. Bridges are numbered along the chain shown (N, C = ends). [ ]: non-standard residue; d: D form. The star is where a group is joined. hPhe(3-Cl-4-CF3) = N[C@@H](CCc1ccc(C(F)(F)F)c(Cl)c1)C(=O)O; NPrPhe(4-CF3) = CCCN[C@@H](Cc1ccc(C(F)(F)F)cc1)C(=O)O; NMeGly(cPent) = CN[C@H](C(=O)O)C1CCCC1; NMeD = CN[C@@H](CC(=O)O)C(=O)O; NMeL = CN[C@@H](CC(C)C)C(=O)O; Morpholide = C1CN(*)CCO1; Aze = O=C(O)[C@@H]1CCN1; Ac4c = NC1(C(=O)O)CCC1; Sar = CNCC(=O)O

Key:
[1] = target: GDP-bound NRAS wild-type protein (Homo sapiens, UniProt P01111); experiment: Binding to NRAS by surface plasmon resonance (SPR), KD and KD ratio to KRAS
GDP-bound NRAS wild-type protein, sequence (P01111 whole entry): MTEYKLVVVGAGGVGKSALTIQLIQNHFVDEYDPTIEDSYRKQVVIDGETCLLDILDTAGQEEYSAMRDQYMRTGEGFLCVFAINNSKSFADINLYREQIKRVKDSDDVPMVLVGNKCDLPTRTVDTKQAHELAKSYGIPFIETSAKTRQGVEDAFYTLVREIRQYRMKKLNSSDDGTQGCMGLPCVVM
How it was run: (§1)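 Each cycle, GDP-bound biotin-Avi RAS was captured (~100–300 RU), compound concentrations were injected low to high for 75 s each at 100 µL/min, then the chip was regenerated. Buffer: HBS pH 7.4, 10 mM MgCl2, 10 µM GDP, 1 mM DTT, 4% DMSO; 30°C. KD from a 1:1 binding model.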

[2] = tested on: human lung cancer strain NCI-H441; format: cell-based
How it was run: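 Signal came from […] measured per well once the reagent was added. Beforehand, cells were cultured at 37°C and 5% carbon dioxide on a compound series serially diluted in dimethyl sulfoxide.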

HRAS wild-type protein = HRAS wild-type protein (Homo sapiens, UniProt P01112); experiment: Binding to HRAS by surface plasmon resonance (SPR), KD and KD ratio to KRAS
HRAS wild-type protein, sequence (P01112 whole entry): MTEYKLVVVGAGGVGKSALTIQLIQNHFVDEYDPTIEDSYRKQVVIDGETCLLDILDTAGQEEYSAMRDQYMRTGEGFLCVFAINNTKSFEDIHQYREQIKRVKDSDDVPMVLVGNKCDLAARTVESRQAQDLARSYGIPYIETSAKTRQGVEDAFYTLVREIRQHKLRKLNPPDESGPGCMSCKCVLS
How it was run: as §1

[3] = target: GDP-bound KRAS wild-type protein (Homo sapiens, UniProt P01116); experiment: Binding to KRAS by surface plasmon resonance (SPR), dissociation constant KD
GDP-bound KRAS wild-type protein, sequence (P01116 1-188 isoform P01116-2): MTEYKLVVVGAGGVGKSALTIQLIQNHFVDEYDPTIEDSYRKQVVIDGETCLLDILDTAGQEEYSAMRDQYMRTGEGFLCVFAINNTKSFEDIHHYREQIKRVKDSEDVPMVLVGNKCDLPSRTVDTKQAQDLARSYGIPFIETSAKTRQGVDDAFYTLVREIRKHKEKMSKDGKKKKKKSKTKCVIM
How it was run: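 Biotinylated GDP-bound RAS was captured at about 100–300 RU. Running buffer: HBS pH 7.4, 10 mM MgCl2, 10 µM GDP, 1 mM DTT, 0.01% Tween 20, 4% DMSO.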

[4] = ratio of the KD value with respect to GDP-bound NRAS wild-type protein to the KD value with respect to KRAS
[5] = ratio of the KD value with respect to HRAS wild-type protein to the KD value with respect to KRAS
[6] = Single Cycle Kinetics, 1:1 binding model
[7] = ratio of KD for GDP-bound NRAS wild-type protein to KD for KRAS
[8] = ratio of KD for HRAS wild-type protein to KD for KRAS

Row | Compound | NRAS /KRAS [1, 4] | IC50 [2] | HRAS /KRAS (HRAS wild-type protein; [5]) | Kd [3, 6] | NRAS /KRAS [1, 7] | HRAS /KRAS (HRAS wild-type protein; [8]) | Kd ([3]; 1:1 binding model) | Kd ([3]; Single Cycle Kinetics) | IC50 ([2]; NCI-H441 cells, 4 days, CellTiter-Glo, read-out: NCl-H441 IC50)
1 | CCC[C@H]1C(=O)N[C@@H]([C@@H](C)CC)C(=O)N(C2CC2)CC(=O)N(C)[C@H]2C/C=C\CCN(C2=O)[C@@H](CC2CCCCC2)C(=O)N(C)CC(=O)N[C@@H](CCc2ccc(C(F)(F)F)c(OC)c2)C(=O)N2C[C@H](OCC)C[C@H]2C(=O)N(C)C2(CCC2)C(=O)N(C)[C@@H](C2CCCC2)C(=O)N(C)[C@H](C(=O)N(C)C)CC(=O)N1C [PP2340] | B (a compound having 3 or more and less than 10 is denoted as B) | 44.9 nM | B (a compound having 3 or more and less than 10 is denoted as B) | 1.1 nM | – | – | – | – | –
2 | CCC[C@H]1C(=O)N[C@@H]([C@H](C)CC)C(=O)N(C)CC(=O)N(C)[C@H]2C/C=C\CCN(C2=O)[C@@H](Cc2ccc(C)cc2)C(=O)N(C)CC(=O)N[C@@H](CCc2ccc(C(F)(F)F)c(Cl)c2)C(=O)N2C[C@H](OCC)C[C@H]2C(=O)NC2(CC(C)(C)C2)C(=O)N(C)[C@@H](CC(C)(C)C)C(=O)N(C)[C@H](C(=O)N(C)C)CC(=O)N1C [PP2219] | A (a compound having 10 or more and less than 20 is denoted as A) | 50.9 nM | A (a compound having 10 or more and less than 20 is denoted as A) | 1.6 nM | – | – | – | – | –
3 | CCO[C@@H]1C[C@H]2C(=O)NC3(CC(C)(C)C3)C(=O)N(C)[C@@H](C3CCCC3)C(=O)N(C)[C@H](C(=O)N(C)C)CC(=O)N(C)[C@@H]([C@H](C)OC)C(=O)N[C@@H]([C@@H](C)CC)C(=O)N(C)CC(=O)N(C)[C@H]3C/C=C\CCN(C3=O)[C@@H](Cc3ccc(C)cc3)C(=O)N(C)CC(=O)N[C@@H](CCc3cc(F)c(C(F)(F)F)c(F)c3)C(=O)N2C1 [PP3187] | – | 10.4 nM | – | – | A (a compound having 10 or more and less than 20 is denoted as A) | A (a compound having 10 or more and less than 20 is denoted as A) | 0.082 nM | – | –
4 | CCCN1C(=O)CN(C)C(=O)[C@@H]2CCN2C(=O)[C@H]([C@@H](C)CC)NC(=O)[C@H](CC(C)C)N(C)C(=O)C[C@@H](C(=O)N2CCOCC2)N(C)C(=O)[C@H](C2CCCC2)N(C)C(=O)C2(CCC2)NC(=O)[C@@H]2CCCN2C(=O)[C@H](CCc2ccc(C(F)(F)F)c(Cl)c2)NC(=O)CN(C)C(=O)[C@@H]1Cc1ccc(C(F)(F)F)cc1 [PP0402] ([NMeL]I[Aze][Sar][NPrPhe(4-CF3)][Sar][hPhe(3-Cl-4-CF3)]P[Ac4c][NMeGly(cPent)][NMeD]-Morpholide; lactam N-11) | B (a compound having 3 or more and less than 10 is denoted as B) | 58.1 nM | C (A compound having a KD ratio of 0.1 or more and less than 3 is denoted as C) | 1.2 nM | – | – | – | – | –
5 | CCO[C@@H]1C[C@H]2C(=O)NC3(CCC3)C(=O)N(C)[C@@H](C3CCCC3)C(=O)N(C)[C@H](C(=O)N3CCOCC3)CC(=O)N(C)[C@@H](CC(C)C)C(=O)N[C@@H]([C@H](C)CC)C(=O)N(C)CC(=O)N(C)[C@H]3CCCCCN(C3=O)[C@@H](Cc3ccc(C(F)(F)F)cc3)C(=O)N(C)CC(=O)N[C@@H](CCc3cc(F)c(C(F)(F)F)c(F)c3)C(=O)N2C1 [PP0815] | – | 345 nM | – | – | B (a compound having 3 or more and less than 10 is denoted as B) | B (a compound having 3 or more and less than 10 is denoted as B) | – | 3.9 nM | –
6 | CCC[C@H]1C(=O)N[C@@H](C2CCCC2)C(=O)N(C)CC(=O)N(C)[C@H]2C/C=C\CCN(C2=O)[C@@H](Cc2ccc(C)cc2)C(=O)N(C)CC(=O)N[C@@H](CCc2ccc(C(F)(F)F)c(Cl)c2)C(=O)N2C[C@H](OCC)C[C@H]2C(=O)NC2(CC(C)(C)C2)C(=O)N(C)[C@@H](CC(F)(F)F)C(=O)N(C)[C@H](C(=O)N(C)C)CC(=O)N1C [PP2192] | A (a compound having 10 or more and less than 20 is denoted as A) | 91.9 nM | A (a compound having 10 or more and less than 20 is denoted as A) | 3.3 nM | – | – | – | – | –
7 | CCOC[C@H]1C(=O)N[C@@H]([C@@H](C)CC)C(=O)N(C2CC2)CC(=O)N(C)[C@H]2C/C=C\CCN(C2=O)[C@@H](Cc2ccc(C(F)(F)F)cc2)C(=O)N(C)CC(=O)N[C@@H](CCc2ccc(C(F)(F)F)c(OC)c2)C(=O)N2C[C@H](OCC)C[C@H]2C(=O)N(C)C2(CCC2)C(=O)N(C)[C@@H](C(CC)CC)C(=O)N(C)[C@H](C(=O)N(C)C)CC(=O)N1C [PP2315] | A (a compound having 10 or more and less than 20 is denoted as A) | 9 nM | A (a compound having 10 or more and less than 20 is denoted as A) | 0.33 nM | – | – | – | – | –
8 | CCC(CC)[C@H]1C(=O)N(C)[C@H](C(=O)N(C)C)CC(=O)N(C)[C@@H](COC)C(=O)N[C@@H]([C@@H](C)CC)C(=O)N(C)CC(=O)N(C)[C@H]2C/C=C\CCN(C2=O)[C@@H](Cc2ccc(C)cc2)C(=O)N(C)CC(=O)N[C@@H](CCc2ccc(Cl)c(Cl)c2)C(=O)N2C[C@H](OC(C)C)C[C@H]2C(=O)N(C)C2(CC(C)(C)C2)C(=O)N1C [PP2814] | – | 44.4 nM | – | – | AA (a compound having 20 or more is denoted as AA) | A (a compound having 10 or more and less than 20 is denoted as A) | 0.37 nM | – | –
9 | CCO[C@@H]1C[C@H]2C(=O)NC3(CCC3)C(=O)N(C)[C@@H](C3CCCC3)C(=O)N(C)[C@H](C)CC(=O)N(C)[C@@H](CC(C)C)C(=O)N[C@@H]([C@@H](C)CC)C(=O)N(C)CC(=O)N(C)[C@H]3C/C=C\CCN(C3=O)[C@@H](Cc3ccc(C(F)(F)F)cc3)C(=O)N(C)CC(=O)N[C@@H](CCc3cc(F)c(C(F)(F)F)c(F)c3)C(=O)N2C1 [PP1100] | – | 17.6 nM | – | – | B (a compound having 3 or more and less than 10 is denoted as B) | B (a compound having 3 or more and less than 10 is denoted as B) | – | 0.19 nM | –
10 | CCC(CC)[C@H]1C(=O)N(C)[C@H](C(=O)N2CCCCC2)CC(=O)N(C)[C@H]2CCC/C=C/c3ccc(cc3)C[C@@H](C(=O)N(C)CC(=O)N[C@@H](CCc3ccc(Cl)c(Cl)c3)C(=O)N3CCC[C@H]3C(=O)NC3(CC(C)(C)C3)C(=O)N1C)N1CC/C=C\C[C@@H](C1=O)N(C)C(=O)CN(C)C(=O)[C@H]([C@@H](C)CC)NC2=O [PP3055] | – | – | – | – | AA (a compound having 20 or more is denoted as AA) | A (a compound having 10 or more and less than 20 is denoted as A) | 1 nM | – | 69.2 nM
11 | CC[C@H](C)[C@@H]1NC(=O)[C@H](CC(C)C)N(C)C(=O)C[C@@H](C(=O)N2CCOCC2)N(C)C(=O)[C@H](C2CCCC2)N(C)C(=O)C2(CCCC2)NC(=O)[C@@H]2CCCN2C(=O)[C@H](CCc2ccc(C(F)(F)F)c(Cl)c2)NC(=O)CN(C)C(=O)[C@H](Cc2ccc(C(F)(F)F)cc2)N2CCCCC[C@@H](C2=O)N(C)C(=O)CN(C)C1=O [PP0319] | – | 23.5 nM | – | – | B (a compound having 3 or more and less than 10 is denoted as B) | B (a compound having 3 or more and less than 10 is denoted as B) | 1.8 nM | – | –
12 | CCC[C@H]1C(=O)N[C@@H]([C@@H](C)CC)C(=O)N(C)CC(=O)N(C)[C@H]2C/C=C\CCN(C2=O)[C@@H](Cc2ccc(C)cc2)C(=O)N(C)CC(=O)N[C@@H](CCc2ccc(CC)c(Cl)c2)C(=O)N2C[C@H](OCC)C[C@H]2C(=O)NC2(CC(C)(C)C2)C(=O)N(C)[C@@H](C(CC)CC)C(=O)N(C)[C@H](C(=O)N(C)C)CC(=O)N1C [PP2779] | – | 112 nM | – | – | A (a compound having 10 or more and less than 20 is denoted as A) | A (a compound having 10 or more and less than 20 is denoted as A) | 3.4 nM | – | –
13 | CCO[C@@H]1C[C@H]2C(=O)NC3(CCC3)C(=O)N(C)[C@@H](C3CCCC3)C(=O)N(C)[C@H](C(=O)N3CCOCC3)CC(=O)N(C)[C@@H](CC(C)(C)C)C(=O)N[C@@H]([C@@H](C)CC)C(=O)N(C)CC(=O)N(C)[C@H]3CCCCCN(C3=O)[C@@H](Cc3ccc(C(F)(F)F)cc3)C(=O)N(C)CC(=O)N[C@@H](CCc3cc(F)c(C(F)(F)F)c(F)c3)C(=O)N2C1 [PP0684] | B (a compound having 3 or more and less than 10 is denoted as B) | 45 nM | B (a compound having 3 or more and less than 10 is denoted as B) | 1.1 nM | – | – | – | – | –
14 | CC[C@@H]1C[C@H]2C(=O)NC3(CCCC3)C(=O)N(C)[C@@H](C3CCCC3)C(=O)N(C)[C@H](C(=O)N(C)C)CC(=O)N(C)[C@@H](CC(C)C)C(=O)N[C@@H]([C@@H](C)CC)C(=O)N(C)CC(=O)N(C)[C@H]3C/C=C\CCN(C3=O)[C@@H](Cc3ccc(C)cc3)C(=O)N(C)CC(=O)N[C@@H](CCc3cc(F)c(C(F)(F)F)c(F)c3)C(=O)N2C1 [PP2191] | A (a compound having 10 or more and less than 20 is denoted as A) | 91.6 nM | B (a compound having 3 or more and less than 10 is denoted as B) | 0.23 nM | – | – | – | – | –
